This note sets out measurements from ChEMBL document CHEMBL3508693.

Assay type in all cases: cell-free
The species entered for experiment [1] is Homo sapiens. In words: (§1) In vitro plasma protein binding (reported as Fu[%]) of 500 ng.ml-1 [14C] aliskiren hemifumarate in human. The arrangement: conc 500 ng.ml-1, sampling time 1 h. The conditions noted are these: tested as the 14C-labelled form, at 500 ng/mL.
For experiment [2], the species on record is Homo sapiens. Described as §1. The arrangement: conc 500 ng.ml-1, sampling time 1 h. The conditions noted are these: tested as the 14C-labelled form, at 500 ng/mL. The source holds these as a separate data set.
The species named for the next experiment is Mus musculus. In words: In vitro plasma protein binding (reported as Fu[%]) of 10,000 ng.ml-1 [14C] aliskiren hemifumarate in pooled plasma samples of mouse. The arrangement: conc 10000 ng.ml-1, sampling time 1 h. The conditions noted are these: CD-1(ICR)BR, tested as the 14C-labelled form, at 10000 ng/mL.
The species entered for a further experiment is Oryctolagus cuniculus. The experiment is described as follows: In vitro plasma protein binding (reported as Fu[%]) of 10,000 ng.ml-1 [14C] aliskiren hemifumarate in pooled plasma samples of rabbit. The conditions noted are these: New Zealand White, tested as the 14C-labelled form, at 10000 ng/mL. The arrangement: conc 10000 ng.ml-1, sampling time 1 h.

The species named for experiment [3] is Homo sapiens. Described as §1. The conditions noted are these: tested as the 14C-labelled form, at 500 ng/mL. Also on record: conc 500 ng.ml-1, sampling time 1 h. This is another data set of the same source.
The species entered for another experiment is Rattus norvegicus. In words: In vitro plasma protein binding (reported as Fu[%]) of 10,000 ng.ml-1 [14C] aliskiren hemifumarate in pooled plasma samples of rat. The conditions noted are these: WI(Glx/BRL/Han)BR, tested as the 14C-labelled form, at 10000 ng/mL. The arrangement: conc 10000 ng.ml-1, sampling time 1 h.
The species named for the next experiment is Callithrix jacchus. The experiment is described as follows: In vitro plasma protein binding (reported as Fu[%]) of 10,000 ng.ml-1 [14C] aliskiren hemifumarate in pooled plasma samples of marmoset. Also on record: conc 10000 ng.ml-1, sampling time 1 h. The conditions noted are these: tested as the 14C-labelled form, at 10000 ng/mL.

As for `COCCCOc1cc(C[C@@H](C[C@H](N)[C@@H](O)C[C@H](C(=O)NCC(C)(C)C(N)=O)C(C)C)C(C)C)ccc1OC`, the Fu worked out at 49.8% in the experiment listed under Homo sapiens [1]; 51.4% in the experiment filed under Homo sapiens [2]; 28.8% in the experiment filed under Mus musculus; 42.5% in the experiment filed under Oryctolagus cuniculus; 47.3% in the experiment listed under Homo sapiens [3]; 38.3% in the experiment filed under Rattus norvegicus. For the same molecule, the Fu in the experiment listed under Callithrix jacchus came to 8.1%.
